Reference: US8026231B2, “Aminothiolester compounds, pharmaceutical and cosmetic compositions containing same and uses thereof” (CNRS, priority 2000, dated 2011)

How the values were obtained:
BAF3 bcl2 cells = experiment: Growth of BAF3 bcl2 cells (viable cell count, Trypan blue); assay type: cell-based, murine; details: 50% inhibition of cell growth
Experimental: The cells used correspond to two cell lines: metastatic cells of human prostate cancer (DU145) and murine lymphoid cells transfected with the human bcl2 gene (BAF3 bcl2).
The procedure used for the tests on BAF3 bcl2 cells is as follows: • 10^5 cells are incubated in the various wells of a microplate in 1 ml of culture medium. After incubation for 4 hours, the test compounds are added to the wells containing the BAF3 bcl2 cells.
For the BAF3 bcl2 cells, the growth is measured by counting the viable cells in the presence of 0.1% Trypan blue. The control consists of thioampal, disclosed in patent application WO 98/44919.
The IC50 concentration is the concentration corresponding to a 50% inhibition of cell growth.

ALDH1 = experiment: Effect on the activity of ALDH1 after preincubation; assay type: biochemical, baker's yeast; details: 400 μM
Experimental: The procedure used is given below: 260 mU of ALDH from baker's yeast are preincubated at 37 or 0° C. in a mixture of 1 mM EDTA, 100 mM KCl, in 60 mM of sodium phosphate buffer pH 6 in a final volume of 200 μl.
To each tube containing the 200 μl of mixture, the test compound is added to a concentration of 400 μM, with the exception of a control series which contains no test compound.
The incubation carried out at 0° C. or at 37° C. is stopped by adding 100 μg of BSA (bovine serum albumin) and acetone at −20° C. to a final concentration of 80% in order to precipitate the proteins (ALDH and BSA). The tubes are left at −20° C. for 1 hour and then centrifuged at 10 000 rpm for 10 minutes and washed with 80% acetone. […]
The reaction is started by adding 2 mM of propanal and the optical density (OD) is measured at 340 nm at T=0 and at T=5, 10, 20 and 30 minutes.
The activity of the enzyme is measured by the variation in optical density Δ OD per minute (Quash G. et al., Enzymology and molecular biology of carbonyl metabolism, Weiner et al. eds., Kluwer Academic/Plenum Publishers, New York, 97-106).
The percentage activity (A %) of the ALDH1 enzyme obtained at different preincubation times with the compound of Example 1 at 0° C. […] (represented by Δ) is measured as a function of the time t (expressed in minutes).

## CSC(=O)C#CC(C)(C)N(C)C [Example 1, S-methyl 4-dimethyl-amino-4-methyl-2-pentynethioate]
BAF3 bcl2 cells
  IC50: 0.25 µM
ALDH1; pre-incubation at 0° C.
  Inhibition of the activity of the ALDH1 enzyme: no effect of inhibition
ALDH1; pre-incubation at 37° C.
  Inhibition of the activity of the ALDH1 enzyme: an effect of inhibition of the activity of the enzyme is observed
